Here are results for one compound from PMC11404848, “Stenotrophomonas maltophilia uses a c-di-GMP module to sense the mammalian body temperature during infection” (PLOS Pathogens, 2024).

The experiment concerns the target T1, BtsD^Δ(SP-GGDEF).
T1 construct: N-terminal region; signal peptide (1-42) and GGDEF domain (836-1008) deleted; borders derived from printed deletions; expressed in E. coli BL21(DE3), His6 tag kept or GST tag cut
The experiment is described as follows: MicroScale Thermophoresis. The settings on record: PBS pH 6.5; protein labelled with Red NHS dye. The class given is binding, Stenotrophomonas maltophilia. An excerpt:
MicroScale Thermophoresis on BtsD^Δ(SP-GGDEF) | BtsD^Δ(SP-GGDEF) directly bound with c-di-GMP and Sensor^BtsK

Take `Nc1nc2c(ncn2[C@@H]2O[C@@H]3COP(=O)(O)O[C@H]4[C@@H](O)[C@H](n5cnc6c(=O)[nH]c(N)nc65)O[C@@H]4COP(=O)(O)O[C@H]3[C@H]2O)c(=O)[nH]1` [c-di-GMP]: the Kd (usually the constant that tells how readily two partners part at equilibrium) was 8.72 ± 4.12 µM.
